{
  "source": "patent US20190275040A1",
  "about": "“COMPOUNDS AND METHODS FOR TREATING OR PREVENTING ALZHEIMER'S DISEASE” (YALE UNIVERSITY, priority 2016, published 2019)",
  "key": {"[1]": {"tested_on": "primary hippocampal neurons", "assay": "Dendritic spine motility in primary hippocampal neurons", "type": "cell-based, mouse", "details": "Aβo 24 hours; PF-719 1 μM, Y27632 10 μM", "text": "FIG. 11A: Representative images of dendritic spine motility by standard deviation projection of time-lapse image. […] The standard deviation value for each pixel is shown by thermal color scale. […] FIG. 11B: Quantification of spine motility, expressed as % of changed area of spines with subtraction of changed area of dendritic shaft as background (changed area=(ΔAspine/Aspine×100)−(ΔAshaft/Ashaft×100)). […] Data are graphed as mean±SEM (n=7-8 coverslips from 3 different cultures). **p<0.01, ***p<0.001 by ANOVA, Tukey's multiple comparisons test.\nFIG. 18A: Representative images of dendritic spine motility by standard deviation projection of time stacks. […] To display the spine motility in time-lapse images, the time stack images over 5 min of each conditions were projected to standard deviation using Image J and color coated with thermal color scale. […] FIG. 18B: Quantification of spine motility, expressed as % of changed area of spines with subtraction of dendritic shaft area change (changed area=(ΔAspine/Aspine×100)−(ΔAshaft/Ashaft×100)). Mean±SEM (n=5 coverslips).\nTime-lapse images were acquired for 5 minutes with 10 second intervals in Tyrode's solution using 60× objective lens driven Volocity software. Time-lapse images (31 time frames over 5 min) were subjected to standard deviation (STD) projection to visualize spine motility in single image and colorized with thermal scale using ImageJ software (NIH). Quantitative measurements of spine motility by calculating the changed area at individual dendritic spines were conducted by using ImageJ software by an observer unaware of treatment group."}, "[2]": {"tested_on": "cultured mouse hippocampal neurons", "assay": "GFP-Pyk2 overexpression-induced dendritic spine loss in cultured hippocampal neurons", "type": "cell-based", "details": "PF-719 1 μM; Y27632 10 μM; DIV 17-21", "text": "FIG. 7A: TBS-T soluble human Alzheimer's disease brain extracts were immunoblotted with anti-Pyk2 or anti-pY402 Pyk2 specific antibodies. FIG. 7B: Densitometric analysis of the immunoblots from FIG. A. p-Pyk2/Pyk2 ratio values were normalized to control mean value. Data are graphed as mean±SEM (Control, n=10; AD, n=10). *p<0.05 by Student's two-tailed t test. FIG. 7C: Representative immunofluorescent images of Pyk2 immunoreactivity from hippocampal CA1 in WT and Pyk2 null mice at 12-months age. […] FIG. 7D: Hek293T cells were co-transfected with either control vector or flag-tagged Fyn and GFP-tagged Pyk2 or K457A kinase dead mutant. Lysates were immunoblotted with anti-GFP (for GFP tagged Pyk2 and K457A mutant), anti-Fyn, and anti-pSFK antibodies. FIG. 7E: Representative GFP fluorescent images of cultured mouse hippocampal neurons. […] FIG. 7G: Quantification of dendritic spine density in the transfected neurons.\nFIG. 10A: GST-RBD pull-down assay from Hek293T cell lysate from cells expressing indicated plasmids. […] FIG. 10B: Levels of RhoA-GTP (RBD pull-down) and RhoA-total (5% lysate) were quantified by densitometric measurement. […] FIG. 10D: Quantification of RhoA-GTP/total RhoA ratio by densitometric analysis. […] FIG. 10E: Representative GFP fluorescence images of the cultured hippocampal neurons. […] FIG. 10F: Quantification of dendritic spine density. […]"}, "[3]": {"tested_on": "Aβo-induced suppression of LTP in hippocampal slices", "assay": "Hippocampal CA3-CA1 LTP in acute brain slices with or without Aβo", "type": "cell-based, mouse", "details": "WT slices", "method": "FIG. 3A depicts WT slices that were treated with either vehicle or Aβo 30 min prior to theta burst stimulation (TBS). The slope of the field excitatory postsynaptic potential (fEPSP) is plotted as a function of time. Data are graphed as mean±SEM (n=6-12). Inset, representative traces immediately before TBS and 60 min post-TBS (red) are superimposed. FIG. 3B depicts WT and Pyk2−/− brain slices in the absence of Aβo, plotted as in FIG. 3A. FIG. 3C depicts average fEPSPs at 50-60 min post-TBS plotted for the indicated conditions as mean±SEM (n=3-20). Where indicated, 500 nM PF719 kinase inhibitor was pre-incubated with WT slices for 60 min prior to addition of Aβo or vehicle for 30 min, and then TBS. One-way ANOVA, **, p<0.01.\nThe role of Pyk2 in Aβo-induced disruption of synaptic plasticity using hippocampal CA3 to CA1 LTP has also been evaluated, comparing WT and Pyk2−/− slices. […]\n400-μm coronal slices were prepared as described elsewhere herein and submerged in a recording chamber (BSC-PC, Warner Instruments) containing aCSF with 2.4 mM CaCl2 that was continuously oxygenated (95% O2, 5% CO2). […] Extracellular field excitatory post-synaptic potentials (fEPSPs) were recorded using a glass microelectrode (2-6 MS2) (4878, World Precision Instruments) filled with aCSF, and placed in the Stratum radiatum of CA1 neurons. […]"}, "Pyk2 [4]": {"target": "T1, Pyk2 (Homo sapiens, UniProt Q14289)", "T1 sequence (Q14289 whole entry, species assumed)": "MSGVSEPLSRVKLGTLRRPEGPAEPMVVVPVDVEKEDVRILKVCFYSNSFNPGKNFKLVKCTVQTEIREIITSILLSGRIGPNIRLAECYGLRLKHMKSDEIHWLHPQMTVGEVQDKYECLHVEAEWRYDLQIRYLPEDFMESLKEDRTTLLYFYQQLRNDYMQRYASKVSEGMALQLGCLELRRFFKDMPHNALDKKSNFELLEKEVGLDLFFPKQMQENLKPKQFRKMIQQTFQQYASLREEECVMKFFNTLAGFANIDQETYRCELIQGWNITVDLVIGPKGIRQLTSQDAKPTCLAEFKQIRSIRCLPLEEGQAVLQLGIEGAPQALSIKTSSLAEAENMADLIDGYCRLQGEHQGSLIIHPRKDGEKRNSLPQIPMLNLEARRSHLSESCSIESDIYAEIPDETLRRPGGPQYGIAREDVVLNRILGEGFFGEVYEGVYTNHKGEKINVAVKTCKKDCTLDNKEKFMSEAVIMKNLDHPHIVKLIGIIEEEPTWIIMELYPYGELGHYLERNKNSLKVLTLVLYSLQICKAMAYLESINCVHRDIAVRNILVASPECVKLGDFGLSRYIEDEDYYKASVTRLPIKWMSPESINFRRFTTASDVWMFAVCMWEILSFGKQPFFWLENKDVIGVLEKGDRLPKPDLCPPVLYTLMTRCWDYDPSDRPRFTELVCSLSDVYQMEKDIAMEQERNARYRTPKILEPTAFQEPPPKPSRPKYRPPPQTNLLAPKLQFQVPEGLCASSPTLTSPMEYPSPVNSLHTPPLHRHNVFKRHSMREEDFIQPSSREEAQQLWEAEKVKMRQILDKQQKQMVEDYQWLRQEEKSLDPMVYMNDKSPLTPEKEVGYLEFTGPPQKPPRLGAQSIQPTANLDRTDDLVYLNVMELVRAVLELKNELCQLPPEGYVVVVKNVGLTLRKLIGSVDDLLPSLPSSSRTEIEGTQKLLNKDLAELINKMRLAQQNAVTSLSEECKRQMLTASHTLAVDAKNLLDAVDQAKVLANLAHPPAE", "assay": "Pyk2 Ki of kinase inhibitors (CHEMBL & IUPHR-BPS database screen, Table 2)", "type": "biochemical", "details": "Pyk2 versus Fyn"}, "Pyk2 [5]": {"target": "T1, Pyk2", "assay": "Luciferase-based (ADP-Glo) PYK2 kinase assay", "type": "biochemical", "method": "Enzyme, substrate, ATP and inhibitors are diluted in Tyrosine Kinase Buffer. […] The resulting system is incubated at room temperature for 60 minutes. 5 μl of ADP-GLO™ Reagent are added. […] 10 μl of Kinase Detection Reagent are added. […] Luminescence is recorded (Integration time 0.5-1 second)."}, "Fyn": {"target": "Fyn (Homo sapiens, UniProt P06241)", "sequence (P06241 whole entry, species assumed)": "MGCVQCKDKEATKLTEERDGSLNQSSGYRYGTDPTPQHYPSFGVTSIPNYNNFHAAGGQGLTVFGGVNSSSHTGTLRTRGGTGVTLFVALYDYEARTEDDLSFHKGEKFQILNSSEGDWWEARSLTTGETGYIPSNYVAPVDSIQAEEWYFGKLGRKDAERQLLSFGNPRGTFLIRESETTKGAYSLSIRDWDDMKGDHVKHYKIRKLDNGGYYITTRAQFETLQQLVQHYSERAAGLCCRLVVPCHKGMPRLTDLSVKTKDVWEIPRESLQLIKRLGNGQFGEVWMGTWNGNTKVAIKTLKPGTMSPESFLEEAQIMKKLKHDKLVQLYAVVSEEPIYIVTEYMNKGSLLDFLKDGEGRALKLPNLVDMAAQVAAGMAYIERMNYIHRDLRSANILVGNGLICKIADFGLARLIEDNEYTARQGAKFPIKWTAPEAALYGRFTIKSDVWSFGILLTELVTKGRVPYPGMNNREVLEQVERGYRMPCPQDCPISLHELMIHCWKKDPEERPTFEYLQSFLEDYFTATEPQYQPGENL", "details": "cited from earlier work"}, "[6]": {"assay": "Brain and plasma levels after peripheral dosing (LC/MS/MS)", "type": "in vivo, mouse", "method": "(§1) In brain slices and in dissociated primary neuronal cultures, Aβo causes Fyn activation, Pyk2 activation, altered Glu-induced calcium signaling, dendritic spine loss and suppression of LTP. […] After developing LC/MS/MS methods to detect PF-719, the extent to which the Pyk2 inhibitor enters brain from peripheral dosing was determined. […] Continuous 25 mg/kg/d minipump i.p. infusion was chosen for treatment of APP/PS1 mice."}, "FAK": {"target": "FAK (Homo sapiens, UniProt Q05397)", "sequence (Q05397 whole entry, species assumed)": "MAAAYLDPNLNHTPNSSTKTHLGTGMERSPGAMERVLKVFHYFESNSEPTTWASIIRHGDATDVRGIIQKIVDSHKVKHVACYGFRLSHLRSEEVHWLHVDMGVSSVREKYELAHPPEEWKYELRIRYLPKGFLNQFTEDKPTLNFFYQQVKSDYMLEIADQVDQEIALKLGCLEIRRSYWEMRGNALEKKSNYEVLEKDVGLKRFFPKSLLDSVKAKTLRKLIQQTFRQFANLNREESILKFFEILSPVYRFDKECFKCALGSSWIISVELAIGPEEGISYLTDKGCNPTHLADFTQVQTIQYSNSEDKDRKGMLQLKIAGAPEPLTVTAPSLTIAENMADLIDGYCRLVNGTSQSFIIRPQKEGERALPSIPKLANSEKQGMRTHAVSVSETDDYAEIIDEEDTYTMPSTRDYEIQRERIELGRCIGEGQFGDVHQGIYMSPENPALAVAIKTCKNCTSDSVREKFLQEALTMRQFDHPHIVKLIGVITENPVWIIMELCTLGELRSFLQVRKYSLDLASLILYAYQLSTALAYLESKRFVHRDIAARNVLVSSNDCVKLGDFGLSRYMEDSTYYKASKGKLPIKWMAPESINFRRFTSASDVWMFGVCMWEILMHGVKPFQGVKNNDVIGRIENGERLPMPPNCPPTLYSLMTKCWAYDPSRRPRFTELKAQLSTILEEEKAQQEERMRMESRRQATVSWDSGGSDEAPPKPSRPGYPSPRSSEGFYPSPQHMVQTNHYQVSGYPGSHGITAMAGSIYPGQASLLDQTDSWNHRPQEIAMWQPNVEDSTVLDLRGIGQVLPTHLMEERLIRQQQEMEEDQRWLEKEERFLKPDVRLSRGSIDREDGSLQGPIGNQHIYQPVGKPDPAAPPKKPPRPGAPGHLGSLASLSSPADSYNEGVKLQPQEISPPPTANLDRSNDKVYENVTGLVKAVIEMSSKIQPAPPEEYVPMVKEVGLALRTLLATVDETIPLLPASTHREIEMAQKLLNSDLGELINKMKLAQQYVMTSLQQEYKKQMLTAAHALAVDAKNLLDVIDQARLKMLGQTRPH", "assay": "FAK Ki and selectivity versus Pyk2", "type": "biochemical"}, "Pyk2 [7]": {"target": "T1, Pyk2", "details": "cited from earlier work"}, "Pyk2 activation (p-Pyk2)": {"tested_on": "Pyk2 activation (p-Pyk2)", "assay": "Pyk2 activation and Aβo-induced signaling in cells", "type": "cell-based", "details": "500 nM", "method": "as §1"}},
  "note": "Where two headings read alike, the source gives them in different places.",
  "data": [
    {"compound": "CCOc1ccc2nc(SCc3nc(N)nc(N4CCOCC4)n3)sc2c1", "note": "[PF-719, 4-(((6-ethoxybenzo[d]thiazol-2-yl)thio)methyl)-6-morpholino-1,3,5-triazin-2-amine]", "values": [
      {"measurement": "Aβo-induced decrease in spine motility", "setting": "[1]", "value": "rescue fully the Aβo-induced decrease in spine motility"},
      {"measurement": "GFP-Pyk2-induced spine loss", "setting": "[2]", "value": "partial rescue"},
      {"measurement": "Aβo-induced suppression of LTP", "setting": "[3]; 500 nM, Aβo 30 min before TBS", "value": "protects these slices from Aβo-induced suppression"},
      {"measurement": "LTP without Aβo", "setting": "[3]; nM concentrations (500 nM, 60 min pre-incubation)", "value": "does not block LTP"},
      {"measurement": "Inhibition Character", "setting": "Pyk2 [4]", "value": "Pyk2 selective"},
      {"measurement": "Pyk2 inhibition in luciferase-based biochemical assay", "setting": "Pyk2 [5]", "value": "confirm the respective specificities"},
      {"measurement": "Ki", "setting": "Fyn", "value": "> 1", "unit": "µM"},
      {"measurement": "brain level above the Ki", "setting": "[6]; 5 mg/kg, 90 min", "value": 30, "unit": "fold"},
      {"measurement": "Kp at 90 min", "setting": "[6]; mouse, brain and plasma, other: i.p. or p.o., single dose 5 mg/kg i.p. or p.o., 90 min, read-out: brain level as share of plasma level", "value": "~0.3"},
      {"measurement": "concentration at 90 min", "setting": "[6]; mouse, brain, other: i.p. or p.o., single peripheral dose of 5 mg/kg i.p. or p.o., at 90 min", "value": "450 ± 110", "unit": "nM"},
      {"measurement": "half-life", "setting": "[6]; mouse, in vivo, other: i.p. or p.o., single dose 5 mg/kg i.p. or p.o.", "value": 6, "unit": "h"},
      {"measurement": "Oral bioavailability", "setting": "[6]; p.o. compared with i.p.", "value": "equal"},
      {"measurement": "selectivity Pyk2 versus FAK", "setting": "FAK", "value": 30, "unit": "×"},
      {"measurement": "Ki", "setting": "Pyk2 [7]; isolated Pyk2, read-out: Ki for isolated Pyk2", "value": 0.015, "unit": "µM"},
      {"measurement": "Ki", "setting": "Pyk2 [7]; read-out: Pyk2 Ki", "value": 0.01, "unit": "µM"},
      {"measurement": "baseline Pyk2 activation and Aβo-induced signaling in cells", "setting": "Pyk2 activation (p-Pyk2)", "value": "blocked baseline Pyk2 activation and Aβo-induced signaling"}
    ]}
  ]
}
